# Assays:
# Type in all cases: cell-based
# colorectal line HT-29 = assay: Clonogenic test (soft agar colony growth), HT-29; conditions: 21 days, control = 100%, mean ± SEM
# From the text: 1—Interaction (Stimulation or Inhibition of Proliferation) With the Generation of Clonogenic Cells (Clonogenic Test)
# The test used is that described by Hamburger et al. (Science, 1977; 197, 461-463) and Salmon et al. (New England J. Med., 298, 1321-1327). A cell is considered clonogenic if it has the capacity to proliferate and to give rise to a cell colony. “Human tumor stem cells” are the cells which are the source of the neoplastic cells which constitute a given tumor. These tumor stem cells are responsible for the relapse processes which may be observed after surgical resection of primary tumors and are also responsible for the formation of metastases. In a tumor or a tumor cell line, these clonogenic stem cells differ from the other cells of the tumor or from the neoplastic cell line under consideration in that they conserve their capacity to proliferate in the absence of any solid support.
# In this test, the tumor cells are cultured on a semi-solid support consisting of agar. […] In a tumor cell population, cultured on such a support, it is these clonogenic cells (associated with an unlimited number of cell divisions and whose proliferation is referred to by M. I. Dawson as “anchorage-independent [clonal] growth”) which are capable of growing. The percentage of these clonogenic cells in a tumor or a cell line ranges between 0.1% and 0.001%.
# The influence of the compounds of formulae (I) and (Ia) on the growth of the cell colonies obtained by culturing, for example, the mammalian tumor lines MCF7 and MXT and the colorectal line HT-29 on the semi-liquid culture medium known as “soft agar” was measured. On such a medium, only the clonogenic cells referred to by M. I. Dawson as “anchorage-independent (clonal) cells” survive and grow. The growth of these cells in such a “non-adherent” mode bears witness to their degree of tumorigenicity. The inhibition of the growth of the size of a tumor in which a larger number of clonogenic cells has developed then becomes the evidence of reinforced cytotoxic activity.
# Conversely, this test can also reveal that a compound is capable of inhibiting the generation/proliferation of clonogenic cells, thus making the tumor less able to grow and thus reducing the population of tumor cells.
# The tumor cell lines studied are maintained in culture in 25 cm^2 falcon dishes. They are then trypsinized and the cells are fully dissociated from each other. The percentage of live cells is determined after staining with trypan blue. A cell suspension at a concentration of from 5·10^4 to 15·10^4 cells/ml (depending on the cell type under consideration) is prepared in a 0.3% agar solution. Next, 200 μl of this suspension are inoculated in Petri dishes 35 mm in diameter, in which are placed 3 ml of a base layer consisting of a 0.5% agar solution. The 200 μl of cell suspension are in turn covered with 1.8 ml of an upper layer consisting of a 0.3% agar solution. The dishes are then placed in an incubator at 37° C., 5% CO2 and 70% humidity until the treatment. This treatment is carried out about 1 to 2 hours after the inoculation. The test compounds are prepared at a concentration 100 times greater than the desired concentration and 50 μl of these treating solutions are placed over the upper layer of agar in the corresponding dishes. In the present study, the final concentration of the test products is 10^−5, 10^−7 and 10^−9 M. The dishes are then kept in an incubator for 21 days. On the 21st day the dishes are treated by depositing on the upper layer 100 μl of a 1 mg/ml solution of MTT (3-(4,5-dimethylthiazol-2-yl)-2,5-diphenyltetrazolinium bromide prepared with RPMI 1640 medium) for 3 h at 37° C. After this period, the cell colonies are fixed by adding 2 ml of formalin per dish. After fixing for 24 hours, the formalin is evaporated off and the number of stained cell colonies, thus consisting of metabolically active cells, and whose surface area is greater than 100 μm^2, is determined using an inverted microscope. […]
# SW1088 = assay: MTT test, SW1088; conditions: Homo sapiens, 10^−5 M, 72 hours, control = 100%, mean ± SEM, read-out: average optical density (MTT), percentage relative to control
# Experimental: (§1) The influence of the compounds of formulae (I) and (Ia) on non-clonogenic cells was evaluated with the aid of the MTT calorimetric test.
# (§2) The principle of the MTT test is based on the mitochondrial reduction, by the metabolically active live cells, of the yellow-colored product MTT (3-(4,5-dimethylthiazol-2-yl)-2,5-diphenyltetrazolium bromide) to a blue-colored product, formazan. The amount of formazan thus obtained is directly proportional to the amount of live cells present in the culture well(s). This amount of formazan is measured by spectrophotometry.
# (§3) The cell lines are maintained as a monolayer culture at 37° C. in stoppered culture dishes containing MEM 25 MM HEPES (Minimum Essential Medium) base medium. This medium is suited to the growth of a range of various mammalian diploid or primary cells. This medium is then supplemented with:
# (§4) an amount of 5% of FCS (Foetal Calf Serum) decomplemented at 56° C. for 1 hour,
# (§5) 0.6 mg/ml of L-glutamine,
# (§6) 200 μg/ml of streptomycin,
# (§7) The 12 human cancer cell lines which were used were obtained from the American Type Culture Collection (ATCC, Rockville, Md., USA). These 12 cell lines are:
# SW1088 (code ATCC: HTB-12) which is an astrocytoma,
# (§8) Experimentally: 100 μl of a cell suspension containing 20 000 to 50 000 (depending on the cell type used) cells/ml of culture medium are inoculated in 96-well flat-bottomed multi-well plates and are incubated at 37° C., under an atmosphere comprising 5% CO2 and 70% humidity. After incubation for 24 hours, the culture medium is replaced with 100 μl of fresh medium containing either the various test compounds at concentrations ranging from 10^−5 to 10^−10 M or the solvent used to dissolve the test products (control condition). After incubation for 72 hours under the above conditions, the culture medium is replaced with 100 μl of a yellowish solution of MTT dissolved at a rate of 1 mg/ml in RPMI 1640. The microplates are reincubated for 3 hours at 37° C. and are then centrifuged for 10 minutes at 400×g. The yellowish solution of MTT is removed and the blue formazan crystals formed in the cell are dissolved in 100 μl of DMSO. The microplates are then shaken for 5 minutes. The intensity of the resulting blue coloration, and thus of the conversion of the yellow product MTT into blue formazan by the cells that are still alive at the end of the experiment, is quantified by spectrophotometry using a Dynatech Immunoassay System machine at wavelengths of 570 nm and 630 nm corresponding, respectively, to the maximum absorption wavelengths of formazan and to the background noise. Software incorporated in the spectrophotometer calculates the average optical density values and the standard deviation (SD) and standard error of mean (SEM) values.
# (§9) By way of example, the results of the average optical density, expressed as a percentage relative to the average optical density measured under the control condition (set equal to 100%), obtained at a concentration of 10^−5 M on the 12 abovementioned tumor cell lines are given in Table II.
# T24 = assay: MTT test, T24; conditions: Homo sapiens, T-24, 10^−5 M, 72 hours, control = 100%, mean ± SEM, read-out: average optical density (MTT), percentage relative to control
# Experimental: as §1, §2, §3, §4, §5, §6, §7
# J82 (code ATCC: HTB-1) and T24 (code ATCC: HTB-4) which are two bladder cancers,
# as §8, §9
SMILES,"average number of clones of clonogenic cells, percentage relative to control (colorectal line HT-29; 10^−5 M) [%]","average number of clones of clonogenic cells, percentage relative to control (colorectal line HT-29; 10^−7 M) [%]","average number of clones of clonogenic cells, percentage relative to control (colorectal line HT-29; 10^−9 M) [%]",viability at 10 µM (SW1088) [%],viability at 10 µM (T24) [%]
"COc1ccc(-c2cc3c(OC)cc(OC)cc3n(CCN(C)C)c2=O)cc1 [CRL8316, 1-[2-(Dimethylamino)ethyl]-5,7-dimethoxy-3-(4-methoxyphenyl)-1,2-dihydro-2-quinolinone]",50.6 ± 1.8,80.1 ± 2.9,101.6 ± 3.2,107 ± 2,94 ± 3.2
"CCN(CC)C(=O)Cn1c(=O)c(-c2ccc(OC)cc2)cc2c(OC)cc(OC)cc21 [CRL8315, N,N-Diethyl-2-[5,7-dimethoxy-3-(4-methoxy-phenyl)-2-oxo-1,2-dihydro-1-quinolinyl]acetamide]",103.5 ± 4.5,111.9 ± 5.4,112.9 ± 2.4,89.1 ± 0.6,89.6 ± 2.1
"CCN(CC)C(=O)CCn1c(=O)c(-c2ccc(OC)cc2)cc2c(OC)cc(OC)cc21 [CRL8283, N,N-Diethyl-3-[5,7-dimethoxy-3-(4-methoxy-phenyl)-2-oxo-1,2-dihydro-1-quinolinyl]propanamide]",88.9 ± 0.2,90.9 ± 3.1,106.1 ± 1.4,84.7 ± 3.1,72.9 ± 0.9
"COc1ccc(-c2cc3c(OC)cc(OC)cc3[nH]c2=O)cc1 [CRL8246, 5,7-Dimethoxy-3-(4-methoxyphenyl)-1,2-dihydro-2-quinolinone]",70.9 ± 2.8,103.3 ± 3.6,104 ± 2.7,108 ± 1.1,109 ± 3.5
"COc1ccc(-c2cc3c(OC)cc(OC)cc3n(CCC#N)c2=O)cc1 [CRL8247, 3-[5,7-Dimethoxy-3-(4-methoxyphenyl)-2-oxo-1,2-dihydro-1-quinolinyl]propanenitrile]",72.7 ± 3.6,98.3 ± 4.9,104.5 ± 2.7,85.8 ± 3.6,77.8 ± 2.7
"COc1ccc(-c2cc3c(OC)cc(OC)cc3n(CCc3nnn[nH]3)c2=O)cc1 [CRL8256, 1-[2-(1H-1,2,3,4-Tetrazol-5-yl)ethyl]-5,7-dimethoxy-3-(4-methoxyphenyl)-1,2-dihydro-2-quinolinone]",97.1 ± 4.3,100.5 ± 4.1,107.5 ± 3.7,72.1 ± 3.3,78.2 ± 2.6

# — US6593342B1, “Pharmaceutical compositions comprising 2-quinolones” (Laboratoire L. Lafon, priority 1998, dated 2003)
